Source: ChEMBL document CHEMBL1201862, “PubChem BioAssay data set” (2004)
The source made the active and inactive calls.

Key:
[1] = target: G2/mitotic-specific cyclin-B1 (Homo sapiens, UniProt P14635); assay: HeLa cell cycle G2/M accumulation – FACS, mechanism study for Wee1 degradation inhibitor project, late-stage follow-up, panel member Cyclin B Degradation (AID 2088)
[2] = target: Wee1-like protein kinase (Homo sapiens, UniProt P30291); assay: HeLa cell cycle G2/M accumulation – FACS, mechanism study for Wee1 degradation inhibitor project, late-stage follow-up, panel member Wee1 Degradation (AID 2088)
[3] = target: ORF 73 (Human herpesvirus 8, UniProt O40947); assay: KSHV LANA DNA-binding disruption – biochemical, fluorescence polarization, cherry-picked samples, dose response (AID 504725); parameters: species or system Human gammaherpesvirus 8;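 also: fluorescence polarization of a labeled DNA duplex reporting LANA DNA binding; potency is for inhibitors that block LANA binding to the DNA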
[4] = cells; format: functional, cell-based
[5] = cells; format: functional, cell-based; remark: listed apart in the source
[6] = target: T1, Corticotropin-releasing factor receptor 2/Corticotropin-releasing factor-binding protein (Homo sapiens, UniProt P24387+Q13324); assay: activators of CRF receptor 2 with binding protein – uHTS hits, confirmation (AID 602473); format: functional; conditions: read-out: EC50_Mean
T1 sequence (Q13324 whole entry): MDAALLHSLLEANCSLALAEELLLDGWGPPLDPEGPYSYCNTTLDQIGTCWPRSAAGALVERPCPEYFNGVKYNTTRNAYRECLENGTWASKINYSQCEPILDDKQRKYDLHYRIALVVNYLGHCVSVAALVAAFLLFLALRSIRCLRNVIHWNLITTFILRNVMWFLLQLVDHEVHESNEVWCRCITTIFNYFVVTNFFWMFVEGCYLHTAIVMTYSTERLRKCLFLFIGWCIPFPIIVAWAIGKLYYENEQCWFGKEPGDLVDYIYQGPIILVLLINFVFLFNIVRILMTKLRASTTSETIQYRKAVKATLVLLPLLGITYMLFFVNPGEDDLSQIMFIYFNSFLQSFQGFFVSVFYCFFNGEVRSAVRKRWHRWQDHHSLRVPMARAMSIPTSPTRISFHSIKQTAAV
T1 sequence (P24387 whole entry): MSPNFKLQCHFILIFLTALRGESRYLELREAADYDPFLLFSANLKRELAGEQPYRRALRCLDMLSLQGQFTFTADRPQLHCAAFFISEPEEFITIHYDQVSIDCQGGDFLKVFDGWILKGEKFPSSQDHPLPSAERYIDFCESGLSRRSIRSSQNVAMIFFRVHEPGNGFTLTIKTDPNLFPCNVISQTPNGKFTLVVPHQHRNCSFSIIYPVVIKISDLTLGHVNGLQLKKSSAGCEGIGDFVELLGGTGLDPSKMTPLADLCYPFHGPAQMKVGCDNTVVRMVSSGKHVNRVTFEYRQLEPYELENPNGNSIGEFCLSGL

[7] = HEK-293T viability loss after treatment – luminescence, T-cell screen hits, cytotoxicity control for TCR NF-kB inhibitor project, dose response (AID 489026); format: functional, cell-based;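 also: cells exposed to compound about 14 hours before the viability readout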
[8] = target: Trypsin (Sus scrofa, UniProt P00761); assay: trypsin protease activity blockade – biochemical, quenched peptide fluorescence, cherry-pick, selectivity assay for Rce1 protease inhibitor project, dose response (AID 488789)
[9] = system: HeLa; assay: ATP-based viability loss in HeLa cells – cell-based, CellTiter-Glo luminescence, cherry-pick samples, cytotoxicity control for MITF activator project, dose response (AID 540259); format: functional; conditions: Homo sapiens
[10] = Cytotoxicity screening for potential Inhibitors of Bacterial Capsule Biogenesis. [Related pubchem assays (depositor defined):AID488970]; format: functional

Chain of G2/mitotic-specific cyclin-B1 (P14635 whole entry): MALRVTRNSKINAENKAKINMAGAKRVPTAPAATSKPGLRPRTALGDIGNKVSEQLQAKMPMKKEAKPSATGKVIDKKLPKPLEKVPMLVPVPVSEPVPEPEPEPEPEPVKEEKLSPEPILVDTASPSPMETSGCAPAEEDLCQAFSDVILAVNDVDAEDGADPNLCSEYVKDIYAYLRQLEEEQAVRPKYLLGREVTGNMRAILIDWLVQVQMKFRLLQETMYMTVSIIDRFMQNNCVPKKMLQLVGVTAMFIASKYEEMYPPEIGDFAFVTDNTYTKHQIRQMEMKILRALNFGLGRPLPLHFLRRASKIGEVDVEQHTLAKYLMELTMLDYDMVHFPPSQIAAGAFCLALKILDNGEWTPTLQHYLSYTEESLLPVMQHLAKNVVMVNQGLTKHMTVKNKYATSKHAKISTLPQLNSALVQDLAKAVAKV
Chain of ORF 73 (O40947 whole entry): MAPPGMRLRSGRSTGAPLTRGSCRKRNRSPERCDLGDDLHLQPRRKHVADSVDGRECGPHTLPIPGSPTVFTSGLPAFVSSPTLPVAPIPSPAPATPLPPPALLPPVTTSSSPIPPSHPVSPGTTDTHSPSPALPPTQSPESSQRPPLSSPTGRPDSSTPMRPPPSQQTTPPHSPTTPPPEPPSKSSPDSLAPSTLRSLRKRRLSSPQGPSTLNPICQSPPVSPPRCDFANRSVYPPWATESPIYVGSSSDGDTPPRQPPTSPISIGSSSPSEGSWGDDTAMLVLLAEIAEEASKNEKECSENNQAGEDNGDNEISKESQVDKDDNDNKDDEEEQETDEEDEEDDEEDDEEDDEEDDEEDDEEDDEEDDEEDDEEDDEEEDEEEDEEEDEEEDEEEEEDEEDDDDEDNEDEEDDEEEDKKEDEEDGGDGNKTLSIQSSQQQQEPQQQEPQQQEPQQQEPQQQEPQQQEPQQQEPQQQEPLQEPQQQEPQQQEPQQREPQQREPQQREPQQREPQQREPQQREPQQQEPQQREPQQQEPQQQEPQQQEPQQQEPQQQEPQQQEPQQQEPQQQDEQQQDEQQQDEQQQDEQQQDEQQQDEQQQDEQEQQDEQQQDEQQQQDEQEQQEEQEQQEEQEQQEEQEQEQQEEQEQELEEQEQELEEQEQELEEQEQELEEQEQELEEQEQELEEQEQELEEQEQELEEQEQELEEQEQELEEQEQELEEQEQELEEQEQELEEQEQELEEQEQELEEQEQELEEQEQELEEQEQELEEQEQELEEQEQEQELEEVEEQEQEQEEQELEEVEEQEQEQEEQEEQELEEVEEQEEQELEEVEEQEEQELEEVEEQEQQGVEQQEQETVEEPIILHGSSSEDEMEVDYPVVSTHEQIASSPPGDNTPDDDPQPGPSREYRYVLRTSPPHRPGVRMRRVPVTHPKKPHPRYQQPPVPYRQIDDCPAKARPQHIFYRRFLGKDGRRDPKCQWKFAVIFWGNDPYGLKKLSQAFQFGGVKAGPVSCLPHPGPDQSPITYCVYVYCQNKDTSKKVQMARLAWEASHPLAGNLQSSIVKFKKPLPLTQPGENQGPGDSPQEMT
Chain of Wee1-like protein kinase (P30291 whole entry): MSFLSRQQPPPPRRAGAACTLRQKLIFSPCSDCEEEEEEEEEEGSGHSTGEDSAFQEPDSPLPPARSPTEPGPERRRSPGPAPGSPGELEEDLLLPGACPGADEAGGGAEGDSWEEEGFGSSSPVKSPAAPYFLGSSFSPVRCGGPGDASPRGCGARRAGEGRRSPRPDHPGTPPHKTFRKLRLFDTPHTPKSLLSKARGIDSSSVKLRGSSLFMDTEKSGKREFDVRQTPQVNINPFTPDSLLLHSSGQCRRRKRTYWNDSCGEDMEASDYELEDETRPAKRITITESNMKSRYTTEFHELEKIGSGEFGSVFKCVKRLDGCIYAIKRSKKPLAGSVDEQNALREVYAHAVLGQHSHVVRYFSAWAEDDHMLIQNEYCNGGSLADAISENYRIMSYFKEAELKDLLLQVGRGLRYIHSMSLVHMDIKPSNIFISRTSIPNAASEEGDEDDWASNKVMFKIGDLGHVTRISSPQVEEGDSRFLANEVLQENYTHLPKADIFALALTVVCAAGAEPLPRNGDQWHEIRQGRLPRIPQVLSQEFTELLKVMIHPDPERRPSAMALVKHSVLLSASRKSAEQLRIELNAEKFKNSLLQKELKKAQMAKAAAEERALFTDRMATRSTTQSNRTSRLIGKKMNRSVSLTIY
Chain of Trypsin (P00761 whole entry): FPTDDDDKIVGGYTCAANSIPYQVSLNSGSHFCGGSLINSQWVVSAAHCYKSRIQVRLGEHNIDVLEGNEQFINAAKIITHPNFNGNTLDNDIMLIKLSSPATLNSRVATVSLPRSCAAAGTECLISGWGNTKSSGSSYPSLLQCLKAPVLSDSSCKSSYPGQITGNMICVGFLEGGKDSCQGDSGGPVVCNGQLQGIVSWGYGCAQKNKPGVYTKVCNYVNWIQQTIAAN

Cc1cc(=O)[nH]c(-n2nc(C)cc2NC(=O)CCc2ccccc2)n1
EC50 [1]: > 49.7 µM (inactive) | EC50 [2]: > 16.6 µM (active)

O=C(OCCN1C(=O)c2cccc3c(N4CCOCC4)ccc(c23)C1=O)c1ccc(Cl)cc1
AC50 [3]: 29.3 µM (active) | EC50 [4]: > 350 µM (not active) | EC50 [5]: > 350 µM (not active) | EC50 [6]: 5.89 µM (active) | IC50 [7]: > 80 µM (inactive)

Cc1ccc(O)c(CNc2cnc3ccccc3c2)c1
AC50 [8]: 12.8 µM (active)

CCc1ccc(NC(=O)c2ccc3nc(N)sc3c2)cc1
AC50 [9]: 47.4 µM (active) | CC50 [10]: 54 µM (active)
